The values below come from patent publication US4044134A, “Fused pyrimidin-4(3H)-ones as antiallergy agents” (Pfizer Inc., priority 1976, dated 1977).

Counter-ions that a name gives are not always drawn. Like-named read-outs stand apart in the source and are kept apart here.

Data set [1] relates to passive cutaneous anaphylaxis (PCA) reaction. The data set can be described thus: passive cutaneous anaphylaxis (PCA) test, i.v. or oral administration. The class given is in vivo, male Charles River Wistar rats. As to conditions: for inhibition in vivo at 3 mg/kg / inhibition in vivo at 0.003 mg/kg / inhibition in vivo at 0.01 mg/kg / inhibition in vivo at 0.03 mg/kg / inhibition in vivo at 0.1 mg/kg / inhibition in vivo at 0.3 mg/kg / inhibition in vivo at 1 mg/kg / inhibition in vivo at 10 mg/kg / inhibition in vivo at 30 mg/kg / inhibition in vivo at 100 mg/kg: read-out: degree (%) of protection, PCA test. The method, then:
In the PCA test, normal animals are injected intradermally (i.d.) with antibodies contained in serum obtained from actively sensitized animals. The animals are then challenged intravenously with antigen mixed with a dye such as Evans' Blue. The increased capillary-permeability caused by the antigen-antibody reaction causes the dye to leak from the site of the antibody injection. The test animals are then asphyxiated and the intensity of the reaction determined by measuring the diameter and intensity of the blue coloration on the inner surface of the animals skin. […] The ability of agents to interfere with PCA reactions is measured in male Charles River Wistar rats, 170-210 g. […] Hyperimmune antisera to hen egg albumin is prepared according to Orange, et al., J. Exptl. […] Forty-eight hours prior to antigen challenge the reaginic antisera is injected intradermally (i.d.) into the shaved skin of a normal rat's back; 5 hours before challenge the hyperimmune antisera is similarly injected; 5 hours later, at a third site, 60 mcg. histamine dihydrochloride is injected i.d. as a check for antihistaminic and unspecific types of blockage; the compounds of the instant invention or saline are then administered i.v. and immediately followed by 2.5 mg. Evan's blue dye and 5 mg. egg albumin in saline. In the case of oral administration Evan's blue dye and egg albumen are given five minutes after administration of the drug. Thirty minutes later the animals are asphyxiated using chloroform and the skin of the back removed and reversed for observation. A score is assigned each injection site equal to the product of the diameter of the site in mm. and a grade of 0.1, 0.5, 1, 2, 3 or 4 proportional to intensity of dye coloration. The scores for a given injection site are summed for each group of 8 animals and compared to the saline treated controls. The difference is expressed as percent blockade due to the compound employed. […] Disodium cromoglycate, a commerial antiallergy agent, is included for comparison. [drawing 3]

The subject of the next data set is bronchi. Particulars: in vivo; cited from earlier work.
A further data set concerns PCA reaction. The data set can be described thus: PCA reaction test after aerosol administration (nebulizer). The class given is in vivo, rats.
Data set [2] in a line: hypotension and bradycardia in dogs. The class given is in vivo.
Data set [3] can be described thus: intravenous toxicity in mice.
A further data set deals with bronchial asthma. Particulars: in vivo; cited from earlier work.
Setting [4] is: Rattus norvegicus, iv, I.V., 0.03 mg/kg.

As to `O=c1[nH]cnc2cc3ccccc3cc12` [Benzo[g]quinazolin-4(3H)-one, reference compound], the inhibition in vivo at 3 mg/kg in data set [1] (Rattus norvegicus, iv, I.V.) was 31%. Moreover, the “bronchodilator activity” value with bronchi is recorded as “active as a bronchodilator”.
`CCOC(=O)c1nc2nc3cc(OC)c(OC)cc3cc2c(=O)[nH]1` [COOC2 H5/H/H/OCH3/OCH3/H, Ethyl 7,8-dimethoxypyrimido[4,5-b]quinolin-4(3H)-one-2-carboxylate]: in data set [1] (Rattus norvegicus, iv, I.V.), the inhibition in vivo at 0.003 mg/kg was 36%, the inhibition in vivo at 0.01 mg/kg was determined as 70%, the inhibition in vivo at 0.1 mg/kg amounted to 90% and the inhibition in vivo at 0.3 mg/kg turned out to be 90%. The inhibition in vivo at 1 mg/kg in data set [1] (Rattus norvegicus, iv, I.V.) was 100%. Also, the inhibition in vivo at 0.03 mg/kg in data set [1] (setting [4]) amounted to 75%. For the same molecule, the minimal effective dose in data set [1] (Rattus norvegicus, iv, read-out: intravenously active at a level as low as) came to 0.003 mg/kg. Further, the inhibition in vivo at 0.03 mg/kg in data set [1] (Rattus norvegicus, Oral, 0.03 mg/kg (so in the source)) was found to be 30%. Further, in data set [1] (Rattus norvegicus, Oral), the inhibition in vivo at 1 mg/kg was determined as 51%, the inhibition in vivo at 3 mg/kg came out at 75% and the inhibition in vivo at 10 mg/kg worked out at 80%. Also, the “routes of administration by which active” value in data set [1] (rat, in vivo) is “active via the oral, intravenous, intraperitoneal and inhalation routes of administration”. The “concentration of solutions giving concentration related responses by aerosol” value with PCA reaction was 0.3 to 30 mg/mL. For the same molecule, the hypotension and bradycardia result in data set [2] was “marked but transient hypotension and bradycardia”. Further, in data set [3] (intravenous, mice), the “intravenous dose that did not cause death in mice” value was 1000 mg/kg. Further, the “toxicity” value in data set [3] (mouse, in vivo) is “relatively free of toxicity”.
On to `O=C(O)c1nc2cc3ccccc3cc2c(=O)[nH]1` [COOH/H/H/H/H (Formula II)], for which, in data set [1] (Rattus norvegicus, iv, I.V.), the inhibition in vivo at 1 mg/kg amounted to 14%, the inhibition in vivo at 3 mg/kg amounted to 36% and the inhibition in vivo at 10 mg/kg stood at 100%. Further, in data set [1] (Rattus norvegicus, Oral), the inhibition in vivo at 10 mg/kg was 33%, the inhibition in vivo at 30 mg/kg came to 0% and the inhibition in vivo at 100 mg/kg came to 9%.
For `O=C(O)c1nc2nc3ccc(O)cc3cc2c(=O)[nH]1` [COOH/H/H/OH/H/H, 7-hydroxypyrimido[4,5-b]quinolin-4(3H)one-2-carboxylic acid], in data set [1] (Rattus norvegicus, iv, I.V.), the inhibition in vivo at 0.003 mg/kg worked out at 4% and the inhibition in vivo at 3 mg/kg worked out at 100%. In addition, the inhibition in vivo at 0.03 mg/kg in data set [1] (setting [4]) came to 91%.
Take `COc1cc2nc3nc(C(=O)O)[nH]c(=O)c3cc2cc1O` [COOH/H/H/OH/OCH3/H, 7-Hydroxy-8-Methoxypyrimido[4,5-b]Quinolin-4(3H)One-2-Carboxylic Acid]: in data set [1] (Rattus norvegicus, iv, I.V.), the inhibition in vivo at 0.003 mg/kg amounted to 90%, the inhibition in vivo at 0.01 mg/kg came to 86% and the inhibition in vivo at 3 mg/kg was 100%.
For `O=C(O)c1nc2nc3ccccc3cc2c(=O)[nH]1` [COONa/H/H/H/H/H, Pyrimido[4,5-b]Quinolin-4(3H)-One-2-Carboxylic Acid Disodium Salt], in data set [1] (Rattus norvegicus, iv, I.V.), the inhibition in vivo at 0.3 mg/kg turned out to be 68% and the inhibition in vivo at 1 mg/kg came to 92%. Moreover, in data set [1] (Rattus norvegicus, Oral), the inhibition in vivo at 10 mg/kg was found to be 0% and the inhibition in vivo at 100 mg/kg was 96%.
As for `COc1cc2cc3c(=O)[nH]c(C(=O)O)nc3nc2cc1OC` [COONa/H/H/OCH3/OCH3/H], in data set [1] (Rattus norvegicus, iv, I.V.), the inhibition in vivo at 0.01 mg/kg was determined as 71% and the inhibition in vivo at 0.1 mg/kg is 100%. For the same molecule, the inhibition in vivo at 0.03 mg/kg in data set [1] (setting [4]) turned out to be 96%. Further, the inhibition in vivo at 10 mg/kg in data set [1] (Rattus norvegicus, Oral) came to 17%.
As for `O=C(O)c1cc(=O)c2c(OCC(O)COc3cccc4oc(C(=O)O)cc(=O)c34)cccc2o1` [Disodium chromoglycate, 1,3-bis-(2-carboxychromon-5-yloxy)-2-hydroxypropane, reference compound], in data set [1] (Rattus norvegicus, iv, I.V.), the inhibition in vivo at 0.1 mg/kg worked out at 19%, the inhibition in vivo at 0.3 mg/kg was determined as 29%, the inhibition in vivo at 1 mg/kg was determined as 56% and the inhibition in vivo at 3 mg/kg was 78%. Further, in data set [1] (Rattus norvegicus, iv, I.V.), the inhibition in vivo at 10 mg/kg stood at 89%, the inhibition in vivo at 30 mg/kg amounted to 99% and the inhibition in vivo at 100 mg/kg was 100%. Moreover, the inhibition in vivo at 100 mg/kg in data set [1] (Rattus norvegicus, Oral) was found to be 0%. Further, the “bronchodilator activity” value in the data set with bronchi was “not a bronchodilator”. Besides, the “efficacy by route of administration” value in the data set on bronchial asthma is “lack of oral efficacy”.
Consider `CCOC(=O)CNC(=O)c1nc2nc3cc(OC)c(OC)cc3cc2c(=O)[nH]1` [N-carbethoxymethyl 7,8-dimethoxypyrimido-[4,5-b]quinolin-4(3H)-one-2-carboxamide], for which, in data set [1] (Rattus norvegicus, iv, I.V.), the inhibition in vivo at 3 mg/kg worked out at 32% and the inhibition in vivo at 30 mg/kg came to 96%.
For `CCOC(=O)c1nc2ncccc2c(=O)[nH]1` [OC2 H5/H/H/H (Formula III), Ethyl Pyrido[2,3-d]Pyrimidin-4(3H)-One-2-Carboxylate], the inhibition in vivo at 10 mg/kg in data set [1] (Rattus norvegicus, iv, I.V.) was determined as 95%. For the same molecule, the inhibition in vivo at 100 mg/kg in data set [1] (Rattus norvegicus, Oral) was 0%.
On to `CN[C@@H](C)[C@H](O)c1ccccc1` [ephedrine], for which the “bronchodilator activity” value in the data set with bronchi is recorded as “orally efficacious bronchodilator”.
For `CNC[C@H](O)c1ccc(O)c(O)c1` [epinephrine], in the data set with bronchi, the “bronchodilator activity” value was “bronchodilator effects”.
Turning to `CC(C)NCC(O)c1ccc(O)c(O)c1` (stereo not shown) [isoproterenol], in the data set on bronchi, the “bronchodilator activity” value is reported as “potent aerosol bronchodilator”.
Regarding `O=c1[nH]cnc2nc3ccccc3cc12` [pyrimido[4,5-b]quinolin-4(3H)-one, reference compound], the inhibition in vivo at 3 mg/kg in data set [1] (Rattus norvegicus, iv, I.V.) turned out to be 33%.
`CC(C)(C)NCC(O)c1ccc(O)c(CO)c1` (stereo not shown) [solbutamol]: the “bronchodilator activity” value in the data set with bronchi was “potent bronchodilator of prolonged duration, and active via both oral and aerosol administration”.
`Cn1c(=O)c2[nH]cnc2n(C)c1=O` [theophylline]: the “bronchodilator activity” value with bronchi was “generally less potent than the sympathomimetic amines such as isoproterenol and solbutamol, and are ineffective in aerosol administration”.
